Literature values as cited in patent US11517536B2, “Pharmaceutical composition comprising pomalidomide” (SYNTHON B.V., priority 2016, dated 2022).

- solubility: low
- solubility in water (drug substance, in water): practically insoluble
Structure (SMILES): Nc1cccc2c1C(=O)N(C1CCC(=O)NC1=O)C2=O (centres unmarked) [Pomalidomide, 4-amino-2-(2,6-dioxopiperidin-3-yl)isoindole-1,3-dione]
